System: KRAS patient-derived spheroids with HUVEC/MSC, viability
Test: Anticancer human tumor 323965-272-R-J2-PDC patient-derived pancreatic carcinoma cell line growth inhibition [KRAS2]
Details: for IC50: curve of first compound; for viability, T/C: stronger effect = lower value
Source text: Multicellular complex tumor spheroid response to RAS pathway inhibitors in combination with a targeted agents in patient-derived cell lines with oncogenic KRAS variants from multiple cancer types
A high-throughput screen of multi-cell type tumor spheroids was designed to identify active combinations of targeted small molecules and KRAS pathway inhibitors. Complex spheroids include a stromal component modeled by human endothelial cells (HUVEC) and fibroblasts modeled by human mesenchymal stem cells (MSCs). The concentration ranges selected for each drug and investigational agent were based upon clinically achievable concentrations if the clinical Cmax of the agent was known.
Compounds. The drugs and investigational agents: BI-3406 (NSC825286), BAY-293 (NSC824723), batoprotafib (TNO155; NSC825523), sotorasib (AMG 510; NSC818433), MRTX1257 (NSC819558), elimusertib (BAY 1895344; NSC800525), molibresib (GSK525762; NSC774829), temuterkib (LY3214996; NSC803410), venetoclax (NSC766270), alisertib (NSC759677), olaparib (NSC753686), talazoparib (NSC767125), erdafitinib (NSC781556), ipatasertib (NSC767898), cabozantinib (NSC761068), nintedanib (NSC756659), abemaciclib (NSC768073), docetaxel (NSC628503), trametinib (NSC758246), and sapanisertib (NSC764658) were obtained from the National Cancer Institute (NCI) Developmental Therapeutics Program Chemical Repository. The FDA-approved anticancer drug set is available from the Developmental Therapeutics Program. […] The stock solutions were prepared in dimethyl sulfoxide (DMSO, Sigma-Aldrich, St. Louis, MO, cat. D2650) at 800-fold the tested concentration and stored at -70 degrees C prior to their use. All drugs and investigational agents were tested over a range starting from a high concentration at or near the clinical Cmax and decreasing in half-log increments. If the clinical Cmax for an agent had not been determined, the highest concentration tested was 10 microM.
Cell Culture. All cells were maintained in an incubator at 37 degrees C and 5% CO2 with 95% humidity. The PDC lines were cultured according to standard operating procedures established by the NCI PDMR (https://pdmr.cancer.gov/sops/default.htm). Briefly, all PDCs were thawed and cultured in Matrigel-coated flasks prepared with a working solution of 1X Ham's F-12 nutrient mix, without supplementation (Invitrogen, Waltham, MA, cat. 11765054), 100 U/mL penicillin-streptomycin (Invitrogen, cat. 15140122), and 2.5% Matrigel (Corning Inc., Corning, NY, cat. 354248) for the first three passages. All PDCs were cultured in complete DMEM/F-12 media containing advanced DMEM/F-12 (Invitrogen, cat. 12634028), 4.9% defined fetal bovine serum, heat inactivated (HyClone Laboratories Inc., Logan, UT, cat. SH30070.03HI), 389 ng/mL hydrocortisone (Sigma-Aldrich, cat. H4001), 9.7 ng/mL human EGF recombinant protein (Invitrogen, cat. PHG0313), 23.4 microg/mL adenine (Sigma-Aldrich, cat. A2786), 97.3 U/mL penicillin-streptomycin (Invitrogen, cat. 15140122), 1.9 mM L-glutamine (Invitrogen, cat. 25030081), and 9.7 microM Y-27632 dihydrochloride (Tocris Bioscience, Bristol, United Kingdom, cat. 1254). The PDCs were cultured in complete DMEM/F12 media without 9.7 microM Y-27632 dihydrochloride for at least two passages prior to the screen. The established cell line HOP-62 was cultured in RPMI 1640 medium, HEPES (Invitrogen, cat. 22400105) with 10% defined fetal bovine serum (HyClone Laboratories Inc., cat. SH30070.03) and 2 mM L-glutamine (Invitrogen, cat. 25030081). The pooled donor HUVEC were cultured in endothelial cell growth medium 2 (PromoCell, Heidelberg, Germany, cat. C-22011) and the hMSC were cultured in mesenchymal stem cell growth medium 2 (PromoCell, cat. C-28009). For all experiments, HUVEC and hMSC were used at passages </=5, while the malignant cell lines were used at passages </=15. […]

[1] = second compound 0.1 µM, first compound 0.0316 µM
[2] = second compound 0.1 µM, first compound 0.1 µM
[3] = second compound 0.1 µM, first compound 0.316 µM
[4] = second compound 0.1 µM, first compound 1 µM
[5] = second compound 0.1 µM, first compound 3.16 µM
[6] = second compound 0.1 µM, first compound 10 µM
[7] = second compound 0.316 µM, first compound 0.0316 µM
[8] = second compound 0.316 µM, first compound 0.1 µM
[9] = second compound 0.316 µM, first compound 0.316 µM
[10] = second compound 0.316 µM, first compound 1 µM
[11] = second compound 0.316 µM, first compound 3.16 µM
[12] = second compound 0.316 µM, first compound 10 µM
[13] = second compound 1 µM, first compound 0.0316 µM
[14] = second compound 1 µM, first compound 0.1 µM
[15] = second compound 1 µM, first compound 0.316 µM
[16] = second compound 1 µM, first compound 1 µM
[17] = second compound 1 µM, first compound 3.16 µM
[18] = second compound 1 µM, first compound 10 µM
[19] = second compound 3.16 µM, first compound 0.0316 µM
[20] = second compound 3.16 µM, first compound 0.1 µM
[21] = second compound 3.16 µM, first compound 0.316 µM
[22] = second compound 3.16 µM, first compound 1 µM
[23] = second compound 3.16 µM, first compound 3.16 µM
[24] = second compound 3.16 µM, first compound 10 µM
[25] = second compound 10 µM, first compound 0.0316 µM
[26] = second compound 10 µM, first compound 0.1 µM
[27] = second compound 10 µM, first compound 0.316 µM
[28] = second compound 10 µM, first compound 1 µM
[29] = second compound 10 µM, first compound 3.16 µM
[30] = second compound 10 µM, first compound 10 µM
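Further: spheroids exposed to agents for 7 days.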
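Wherever viability, T/C is given: 100% = DMSO vehicle control viability.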

Row | Compound | IC50 (second compound 0.1 µM) [nM] | IC50 (second compound 0.316 µM) [nM] | IC50 (second compound 1 µM) [nM] | IC50 (second compound 3.16 µM) [nM] | IC50 (second compound 10 µM) [nM] | viability, T/C [1] [%] | viability, T/C [2] [%] | viability, T/C [3] [%] | viability, T/C [4] [%] | viability, T/C [5] [%] | viability, T/C [6] [%] | viability, T/C [7] [%] | viability, T/C [8] [%] | viability, T/C [9] [%] | viability, T/C [10] [%] | viability, T/C [11] [%] | viability, T/C [12] [%] | viability, T/C [13] [%] | viability, T/C [14] [%] | viability, T/C [15] [%] | also measured
1 | O=C(c1cc(Cc2n[nH]c(=O)c3ccccc23)ccc1F)N1CCN(C(=O)C2CC2)CC1 + CNCc1ccccc1-c1csc(C(C)Nc2nc(C)nc3cc(OC)c(OC)cc23)c1 | > 10000 | > 10000 | > 10000 | 8840 | < 31.6 | 98.7 | 93.1 | 97.8 | 93.6 | 89 | 57.1 | 94.9 | 91 | 98.4 | 89.7 | 86.2 | 51.5 | 92 | 93.5 | 84.5 | viability, T/C [16]: 86.3%; viability, T/C [17]: 83.3%; viability, T/C [18]: 52.9%; viability, T/C [19]: 102%; viability, T/C [20]: 102%; viability, T/C [21]: 96.4%; viability, T/C [22]: 98.8%; viability, T/C [23]: 92.5%; viability, T/C [24]: 44.8%; viability, T/C [25]: 6.59%; viability, T/C [26]: 0.4%; viability, T/C [27]: 2.23%; viability, T/C [28]: 0.39%; viability, T/C [29]: 0.34%; viability, T/C [30]: 0.82%
2 | CC1OCC2(CCN(c3cnc(Sc4ccnc(N)c4Cl)c(N)n3)CC2)C1N (stereo not given) + CNCc1ccccc1-c1csc(C(C)Nc2nc(C)nc3cc(OC)c(OC)cc23)c1 | 404 | 202 | 548 | 351 | < 31.6 | 77.4 | 65.6 | 53.4 | 38.6 | 28.7 | 17.8 | 82.1 | 55.4 | 44.1 | 41.6 | 27.9 | 25.9 | 101 | 71.9 | 60.5 | viability, T/C [16]: 40.7%; viability, T/C [17]: 35.1%; viability, T/C [18]: 33.4%; viability, T/C [19]: 83.5%; viability, T/C [20]: 65.8%; viability, T/C [21]: 51.3%; viability, T/C [22]: 40.8%; viability, T/C [23]: 27%; viability, T/C [24]: 25.5%; viability, T/C [25]: 0.33%; viability, T/C [26]: 0.17%; viability, T/C [27]: 0.15%; viability, T/C [28]: 0.14%; viability, T/C [29]: 0.13%; viability, T/C [30]: 0.18%
3 | COC(=O)c1ccc2c(C(=Nc3ccc(N(C)C(=O)CN4CCN(C)CC4)cc3)c3ccccc3)c(O)[nH]c2c1 + C=CC(=O)N1CCN(c2nc(=O)n(-c3c(C)ccnc3C(C)C)c3nc(-c4c(O)cccc4F)c(F)cc23)C(C)C1 | 1160 | 536 | 243 | 196 | < 31.6 | 53.3 | 55.6 | 53.7 | 50.7 | 42.6 | 19 | 56 | 52.4 | 52.6 | 46.8 | 28.4 | 16.6 | 57.9 | 57.6 | 48 | viability, T/C [16]: 28.2%; viability, T/C [17]: 21.4%; viability, T/C [18]: 16.8%; viability, T/C [19]: 58%; viability, T/C [20]: 56.6%; viability, T/C [21]: 46.4%; viability, T/C [22]: 27.9%; viability, T/C [23]: 22.1%; viability, T/C [24]: 13.8%; viability, T/C [25]: 43.1%; viability, T/C [26]: 32.9%; viability, T/C [27]: 29.6%; viability, T/C [28]: 18.8%; viability, T/C [29]: 17.8%; viability, T/C [30]: 12.5%

— PubChem BioAssay AID1963869 (Molecular Pharmacology Branch, DTP, NCI, 2024)
